PMC3779694 (Hepatology (Baltimore, Md.), 2011)

How the values were obtained:
[1] = tested on: patients with chronic hepatitis C virus (HCV) infection; conditions: short-term treatment; cited from earlier work
adults with NASH [2] = test: Serum caspase-3-cleaved CK-18 fragments; format: in vivo, human; conditions: mean (SD)
adults with NASH [3] = test: Serum AST, phase 2 placebo-controlled trial of GS-9450 for 4 weeks; format: in vivo, human; conditions: for AST, %Change at Week 4 / AST, Change at Week 2 / AST, Change at Week 4: mean (SD)
adults with NASH [4] = test: Adverse events, phase 2 trial; format: in vivo, human; conditions: for Abdominal pain / Abdominal pain upper / Arthralgia / Asthenia / Back pain / Constipation / Diarrhea / Dizziness / Dry mouth / Dyspepsia / Fatigue / Gastroesophageal reflux disease / Headache / Nasopharyngitis / Nausea / No. of subjects with at least one AE / Pain in extremity / Somnolence / Total no. of events (AEs): during treatment
[5] = range across the GS-9450 treatment groups

## CC(C)[C@@]1(C(=O)N[C@H]2CC(=O)O[C@]2(O)CF)CC(c2nccc3ccccc23)=NO1 [GS-9450]
[1]
  effect on ALT levels: reductions in alanine aminotransferase (ALT) levels
Adults with NASH [2]; 1 mg once daily
  CK-18 fragments, %Change at Week 4: 23 (81) %
  CK-18 fragments, Change at Week 2: 164 (384) U/L
  CK-18 fragments, Change at Week 4: 192 (584) U/L
Adults with NASH [2]; 5 mg once daily
  CK-18 fragments, %Change at Week 4: 25 (120) %
  CK-18 fragments, Change at Week 2: −116 (608) U/L
  CK-18 fragments, Change at Week 4: 96 (641) U/L
Adults with NASH [2]; 10 mg once daily
  CK-18 fragments, %Change at Week 4: −26 (38) %
  CK-18 fragments, Change at Week 2: −460 (866) U/L
  CK-18 fragments, Change at Week 4: −393 (723) U/L
Adults with NASH [2]; 10 mg
  mean CK-18 fragment levels had decreased to, by week 4: 393 (723) U/L
Adults with NASH [2]; 40 mg once daily
  CK-18 fragments, %Change at Week 4: −19 (32) %
  CK-18 fragments, Change at Week 2: −140 (490) U/L
  CK-18 fragments, Change at Week 4: −125 (212) U/L
Adults with NASH [2]; 40 mg
  mean CK-18 fragment levels had decreased to, by week 4: 125 (212) U/L
Adults with NASH [3]; 1 mg once daily
  AST, %Change at Week 4: −2 (41) %
  AST, Change at Week 2: −4 (36) U/L
  AST, Change at Week 4: −8 (35) U/L
Adults with NASH [3]; 5 mg once daily
  AST, %Change at Week 4: −6 (38) %
  AST, Change at Week 2: −12 (16) U/L
  AST, Change at Week 4: −5 (24) U/L
Adults with NASH [3]; 10 mg once daily
  AST, %Change at Week 4: −16 (29) %
  AST, Change at Week 2: −22 (34) U/L
  AST, Change at Week 4: −12 (36) U/L
Adults with NASH [3]; 40 mg
  mean AST decrease from baseline to week 4: 13 U/L
  proportion of subjects with normal AST, peak at day 3: 77%
Adults with NASH [3]; 40 mg once daily
  AST, %Change at Week 4: −20 (26) %
  AST, Change at Week 2: −16 (20) U/L
  AST, Change at Week 4: −13 (20) U/L
Adults with NASH [3]; 40 mg, 20% at baseline, normal 36 U/L males, 34 U/L females
  proportion of subjects with normal AST at week 4: 48%
Adults with NASH [3]; all GS-9450 treatment groups
  mean AST within 1 week of stopping study medication: modestly above baseline levels
Adults with NASH [3]; [5]
  AST mean (SD) changes by treatment week 4: −5 (24) to −13 (20) U/L
  AST mean changes from baseline over the first week of treatment: −9 (23) to −27 (29) U/L
Adults with NASH [4]; 1 mg
  frequency of treatment-emergent AEs during the 4-week on-treatment period: 77%
Adults with NASH [4]; 1 mg (n = 26)
  Abdominal pain: 1 (4) n (%)
  Abdominal pain upper: 1 (4) n (%)
  Arthralgia: 1 (4) n (%)
  Asthenia: 1 (4) n (%)
  Back pain: 1 (4) n (%)
  Constipation: 2 (8) n (%)
  Diarrhea: 2 (8) n (%)
  Dizziness: 2 (8) n (%)
  Dry mouth: 1 (4) n (%)
  Dyspepsia: 2 (8) n (%)
  Fatigue: 6 (23) n (%)
  Gastroesophageal reflux disease: 0 n (%)
  Headache: 4 (15) n (%)
  Nasopharyngitis: 2 (8) n (%)
  Nausea: 3 (12) n (%)
  No. of subjects with at least one AE: 20 (77) n (%)
  Pain in extremity: 1 (4) n (%)
  Somnolence: 1 (4) n (%)
  Total no. of events (AEs): 62
Adults with NASH [4]; 5 mg
  frequency of treatment-emergent AEs during the 4-week on-treatment period: 85%
Adults with NASH [4]; 5 mg (n = 26)
  Abdominal pain: 2 (8) n (%)
  Abdominal pain upper: 1 (4) n (%)
  Arthralgia: 3 (12) n (%)
  Asthenia: 1 (4) n (%)
  Back pain: 2 (8) n (%)
  Constipation: 0 n (%)
  Diarrhea: 6 (23) n (%)
  Dizziness: 0 n (%)
  Dry mouth: 0 n (%)
  Dyspepsia: 2 (8) n (%)
  Fatigue: 5 (19) n (%)
  Gastroesophageal reflux disease: 0 n (%)
  Headache: 7 (27) n (%)
  Nasopharyngitis: 0 n (%)
  Nausea: 1 (4) n (%)
  No. of subjects with at least one AE: 22 (85) n (%)
  Pain in extremity: 0 n (%)
  Somnolence: 2 (8) n (%)
  Total no. of events (AEs): 64
Adults with NASH [4]; 10 mg
  frequency of treatment-emergent AEs during the 4-week on-treatment period: 75%
Adults with NASH [4]; 10 mg (n = 24)
  Abdominal pain: 1 (4) n (%)
  Abdominal pain upper: 4 (17) n (%)
  Arthralgia: 1 (4) n (%)
  Asthenia: 1 (4) n (%)
  Back pain: 0 n (%)
  Constipation: 0 n (%)
  Diarrhea: 6 (25) n (%)
